Source: publication doi:10.1101/2023.02.01.526632v1 (biorxiv, 2023)
pIC50: −log10 of the molar value.

Biological target: T1, BAP1 (Homo sapiens, UniProt Q92560)
T1 sequence (Q92560 1-729): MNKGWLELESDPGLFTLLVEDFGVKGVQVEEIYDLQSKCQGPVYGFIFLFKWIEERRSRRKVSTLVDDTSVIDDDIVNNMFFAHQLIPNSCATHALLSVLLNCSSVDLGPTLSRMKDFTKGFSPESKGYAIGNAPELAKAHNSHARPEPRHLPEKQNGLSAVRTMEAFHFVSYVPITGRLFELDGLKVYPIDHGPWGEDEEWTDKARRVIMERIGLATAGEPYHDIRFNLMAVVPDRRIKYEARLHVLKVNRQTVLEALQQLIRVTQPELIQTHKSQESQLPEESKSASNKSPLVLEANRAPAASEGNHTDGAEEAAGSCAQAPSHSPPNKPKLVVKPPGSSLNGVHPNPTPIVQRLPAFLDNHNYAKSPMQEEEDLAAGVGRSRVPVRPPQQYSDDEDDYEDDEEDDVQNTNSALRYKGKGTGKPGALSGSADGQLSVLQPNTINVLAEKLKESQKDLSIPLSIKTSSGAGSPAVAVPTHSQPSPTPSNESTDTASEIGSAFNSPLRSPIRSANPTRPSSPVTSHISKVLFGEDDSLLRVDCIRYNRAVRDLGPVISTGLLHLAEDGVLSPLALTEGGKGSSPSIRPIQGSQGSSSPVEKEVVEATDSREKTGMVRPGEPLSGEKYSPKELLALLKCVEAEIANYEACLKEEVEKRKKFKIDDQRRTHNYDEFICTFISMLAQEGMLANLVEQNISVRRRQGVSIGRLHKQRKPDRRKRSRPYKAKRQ
Assay: competition of Biotin-Ahx-Ub-VS labelling, DIA LC-MS/MS
Type: biochemical
Conditions: covalent; lysate, 3 h preincubation, 0.5 μM ubiquitin probe

## O=C(CCl)N1CCCC1c1ccc2c(c1)OCCO2 (stereo not shown) [compound 3, fragment 3]
  pIC50: ~5.00
